Data on 23 compounds can be found in patent US20260184707A1, “PHARMACEUTICAL COMPOUNDS FOR THE TREATMENT OF COMPLEMENT MEDIATED DISORDERS” (ALEXION PHARMACEUTICALS, INC., priority 2022, published 2026).

The experiment concerns the target T1, Human complement C1s enzyme (Homo sapiens, UniProt P09871).
T1 construct: purified from human serum, Complement Technology, Inc; purchased Complement Technology, Inc; host or cells: human serum (plasma-derived native protein)
T1 sequence (P09871 438-688 limits assumed): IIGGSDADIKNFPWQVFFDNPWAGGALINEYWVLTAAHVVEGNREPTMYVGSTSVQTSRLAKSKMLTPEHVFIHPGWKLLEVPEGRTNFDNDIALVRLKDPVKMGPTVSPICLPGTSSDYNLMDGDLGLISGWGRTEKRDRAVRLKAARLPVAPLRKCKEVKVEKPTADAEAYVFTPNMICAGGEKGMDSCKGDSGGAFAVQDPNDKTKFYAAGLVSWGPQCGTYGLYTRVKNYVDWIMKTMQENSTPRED
T1 sequence (P09871 16-437 partner limits assumed): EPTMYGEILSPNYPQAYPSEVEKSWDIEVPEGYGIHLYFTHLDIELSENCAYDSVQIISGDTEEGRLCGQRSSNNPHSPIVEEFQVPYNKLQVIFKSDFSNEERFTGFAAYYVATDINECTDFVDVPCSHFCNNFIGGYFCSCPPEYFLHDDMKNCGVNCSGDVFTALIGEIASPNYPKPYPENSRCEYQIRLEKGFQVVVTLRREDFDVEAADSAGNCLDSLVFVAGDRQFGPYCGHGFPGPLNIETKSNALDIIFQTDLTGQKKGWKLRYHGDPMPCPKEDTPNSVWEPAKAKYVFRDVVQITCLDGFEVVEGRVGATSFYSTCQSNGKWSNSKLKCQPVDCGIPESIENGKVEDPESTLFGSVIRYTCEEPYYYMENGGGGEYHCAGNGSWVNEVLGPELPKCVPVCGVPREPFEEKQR
Put plainly: Human C1s enzyme assay. The class given is biochemical. The conditions noted are these: human complement C1s enzyme 1.16 nM, substrate Z-L-Lys-SBzl, A405; read-out: IC50 (Stars). The method, then:
The […] values of the compounds of Table 1 were determined with the human C1s enzyme assay described below. Other standard complement assays are also available.
Human complement C1s enzyme (purified from human serum, Complement Technology, Inc.) at 1.16 nM final concentration was incubated with test compound at various concentrations for 5 min at room temperature in 50 mM Tris, 1 M NaCl, pH 7.5. A synthetic substrate Z-L-Lys-SBzl and DTNB (Ellman's reagent) were added to final concentrations of 100 μM each. Absorbance at 405 nm (A405) was recorded at 30 second intervals for […] using a microplate spectrophotometer. IC values were calculated by nonlinear regression of complement C1s reaction rates as a function of test compound concentration.
[…]; ND indicates a compound for which the IC50 value is not determined.

pIC50: −log10 of the molar value. Where only a bound is given, the exact number is not on record here.

Consider `O=C(Cn1c(-c2ccccc2)ncc(NCc2ccc(Oc3ccccc3)cc2)c1=O)NCc1cc2cnccc2[nH]1` [Compound 20, N-((1H-pyrrolo[3,2-c]pyridin-2-yl)methyl)-2-(6-oxo-5-((4-phenoxybenzyl)amino)-2-phenylpyrimidin-1(6H)-yl)-acetamide], for which the negative-log IC50 (pIC50) was greater than 7.00.
Turning to `O=C(Cn1c(-c2ccccc2)ncc(NCCCCc2ccc(Oc3ccccc3)cc2)c1=O)NCc1cc2cnccc2[nH]1` [Compound 21, N-((1H-pyrrolo[3,2-c]pyridin-2-yl)methyl)-2-(6-oxo-5-((4-(4-phenoxyphenyl)butyl)amino)-2-phenylpyrimidin-1(6H)-yl)acetamide], the negative-log IC50 (pIC50) is greater than 7.00.
On to `O=C(Cn1c(-c2ccccc2)ncc(NCc2ccc3c(c2)-c2ccccc2C3(F)F)c1=O)NCc1cc2cnccc2[nH]1` [Compound 22, N-((1H-pyrrolo[3,2-c]pyridin-2-yl)methyl)-2-(5-(((9,9-difluoro-9H-fluoren-3-yl)meth-yl)amino)-6-oxo-2-phenyl-pyrimidin-1(6H)-yl)acetamide], for which the negative logarithm of the IC50 (pIC50) was greater than 7.00.
Take `O=C(Cn1c(-c2ccccc2)ncc(NC(=O)CCC(=O)c2ccc(Oc3ccccc3)cc2)c1=O)NCc1cc2cnccc2[nH]1` [Compound 23, N-(1-(2-(((1H-pyrrolo[3,2-c]pyridin-2-yl)methyl)amino)-2-oxoethyl)-6-oxo-2-phenyl-1,6-dihydropyrimidin-5-yl)-4-oxo-4-(4-phenoxyphenyl)butanamide]: the negative-log IC50 (pIC50) was greater than 7.00.
On to `O=C(Cn1c(-c2ccccc2)ncc(NC(=O)Cc2ccccc2)c1=O)NCc1cc2cnccc2[nH]1` [Compound 24, N-((1H-pyrrolo[3,2-c]pyridin-2-yl)methyl)-2-(6-oxo-2-phen-yl-5-(2-phenylacetamido)pyr-imidin-1(6H)-yl)acetamide], for which the pIC50 was greater than 7.00.
As to `O=C(Cn1c(-c2ccccc2)ncc(-c2ccccc2)c1=O)NCc1cc2cnccc2[nH]1` [Compound 25, N-((1H-pyrrolo[3,2-c]pyridin-2-yl)methyl)-2-(6-oxo-2,5-diphenylpyrimidin-1(6H)-yl)acetamide], the pIC50 is less than 6.00.
The same measure for `O=C(Cn1c(-c2ccccc2)ncc(NCc2ccc3c(c2)oc2ccccc23)c1=O)NCc1cc2cnccc2[nH]1` [Compound 26, N-((1H-pyrrolo[3,2-c]pyridin-2-yl)methyl)-2-(5-((dibenzo[b,d]furan-3-ylmethyl)amino)-6-oxo-2-phenylpyrimidin-1(6H)-yl)acetamide]: greater than 7.00; for `O=C(Cn1c(-c2ccccc2)ncc(NCCCc2ccc(Cl)cc2)c1=O)NCc1cc2cnccc2[nH]1` [Compound 27, N-((1H-pyrrolo[3,2-c]pyridin-2-yl)methyl)-2-(5-((3-(4-chlorophenyl)propyl)amino)-6-oxo-2-phenylpyrimidin-1(6H)-yl)acetamide]: greater than 7.00; for `N#Cc1ccc(CCNc2cnc(-c3ccccc3)n(CC(=O)NCc3cc4cnccc4[nH]3)c2=O)cc1` [Compound 28, N-((1H-pyrrolo[3,2-c]pyridine-2-yl)methyl)-2-(5-((4-cyanophenethyl)amino)-6-oxo-2-phenylpyrimidin-1(6H)-yl)acetamide]: greater than 7.00.
On to `O=C(Cn1c(-c2ccccc2)ncc(NC(=O)c2ccc(-c3ccccc3)cc2)c1=O)NCc1cc2cnccc2[nH]1` [Compound 29, N-(1-(2-(((1H-pyrrolo[3,2-c]pyridin-2-yl)methyl)amino)-2-oxoethyl)-6-oxo-2-phenyl-1,6-dihydropyrimidin-5-yl)-[1,1′-biphenyl]-4-carboxamide], for which the pIC50 was greater than 7.00.
In the case of `O=C(Cn1c(-c2ccccc2)ncc(-c2nc3c(s2)CCCC3)c1=O)NCc1cc2cnccc2[nH]1` [Compound 30, N-((1H-pyrrolo[3,2-c]pyridin-2-yl)methyl)-2-(6-oxo-2-phenyl-5-(4,5,6,7-tetrahydrobenzo[d]thiazol-2-yl)pyrimidin-1(6H)-yl)acetamide], the pIC50 is less than 6.00.
On to `O=C(Cn1c(-c2ccccc2)ncc(NC(=O)OCc2ccccc2)c1=O)NCc1cc2cnccc2[nH]1` [Compound 31, benzyl (1-(2-(((1H-pyrrolo[3,2-c]pyridin-2-yl)methyl)amino)-2-oxoethyl)-6-oxo-2-phenyl-1,6-dihydropyrimidin-5-yl)-carbamate], for which the pIC50 is less than 6.00.
In the case of `O=C(Cn1c(-c2ccccc2)ncc(NCc2ccc3oc4ccccc4c3c2)c1=O)NCc1cc2cnccc2[nH]1` [Compound 32, N-((1H-pyrrolo[3,2-c]pyridin-2-yl)methyl)-2-(5-((dibenzo [b,d]furan-2-ylmethyl)amino)-6-oxo-2-phenylpyrimidin-1(6H)-yl)acetamide], the pIC50 was greater than 7.00.
For `O=C(Cn1c(-c2ccccc2)ncc(NCCNC(=O)c2ccc(Oc3ccccc3)cc2)c1=O)NCc1cc2cnccc2[nH]1` [Compound 33, N-(2-((1-(2-(((1H-pyrrolo[3,2-c]pyridin-2-yl)methyl)amino)-2-oxoethyl)-6-oxo-2-phenyl-1,6-dihydropyrimidin-5-yl)amino)ethyl)-4-phenoxybenzamide], the pIC50 was greater than 7.00.
Under `O=C(Cn1c(-c2ccccc2)ncc(NCCCc2ccc(OC(F)F)cc2)c1=O)NCc1cc2cnccc2[nH]1` [Compound 34, N-((1H-pyrrolo[3,2-c]pyridin-2-yl)methyl)-2-(5-((3-(4-(difluoromethoxy)phenyl)prop-yl)amino)-6-oxo-2-phenyl-pyrimidin-1(6H)-yl)acetamide] stands greater than 7.00.
Under `O=C(Cn1c(-c2ccccc2)ncc(NCCNC(=O)c2ccc3oc4ccccc4c3c2)c1=O)NCc1cc2cnccc2[nH]1` [Compound 35, N-(2-((1-(2-(((1H-pyrrolo[3,2-c]pyridin-2-yl)methyl)amino)-2-oxoethyl)-6-oxo-2-phenyl-1,6-dihydropyrimidin-5-yl)amino)ethyl)dibenzo[b,d]furan-2-carboxamide] stands greater than 7.00.
Under `O=C(Cn1c(-c2ccccc2)ncc(NCCNC(=O)c2ccc3c(c2)-c2ccccc2C3(F)F)c1=O)NCc1cc2cnccc2[nH]1` [Compound 36, N-(2-((1-(2-(((1H-pyrrolo[3,2-c]pyridin-2-yl)methyl)amino)-2-oxoethyl)-6-oxo-2-phenyl-1,6-dihydropyrimidin-5-yl)-amino)ethyl)-9,9-difluoro-9H-fluorene-3-carboxamide] stands greater than 7.00.
Consider `O=C(Cn1c(-c2ccccc2)ncc(N2CCN(c3ccccc3)CC2)c1=O)NCc1cc2cnccc2[nH]1` [Compound 37, N-((1H-pyrrolo[3,2-c]pyridin-2-yl)methyl)-2-(6-oxo-2-phen-yl-5-(4-phenylpiperazin-1-yl)-pyrimidin-1(6H)-yl)acetamide], for which the pIC50 is 6.00 to 7.00.
Under `O=C(Cn1c(-c2ccccc2)ncc(NC(=O)Cc2ccc(Oc3ccccc3)cc2)c1=O)NCc1cc2cnccc2[nH]1` [Compound 38, N-((1H-pyrrolo[3,2-c]pyridin-2-yl)methyl)-2-(6-oxo-5-(2-(4-phenoxyphenyl)acetamido)-2-phenylpyrimidin-1(6H)-yl)-acetamide] stands greater than 7.00; under `O=C(Cn1c(-c2ccccc2)ncc(NCCCc2ccc(OC(F)(F)F)cc2)c1=O)NCc1cc2cnccc2[nH]1` [Compound 39, N-((1H-pyrrolo[3,2-c]pyridin-2-yl)methyl)-2-(6-oxo-2-phen-yl-5-((3-(4-(trifluoromethoxy)-phenyl)propyl)amino)pyrimi-din-1(6H)-yl)acetamide], greater than 7.00.
As for `O=C(Cn1c(-c2ccccc2)ncc(NCCCc2ccc3oc4ccccc4c3c2)c1=O)NCc1cc2cnccc2[nH]1` [Compound 40, N-((1H-pyrrolo[3,2-c]pyridin-2-yl)methyl)-2-(5-((3-(dibenzo [b,d]furan-2-yl)propyl)amino)-6-oxo-2-phenylpyrimidin-1(6H)-yl)acetamide], the negative-log IC50 (pIC50) was greater than 7.00.
Under `O=C(Cn1c(-c2ccccc2)ncc(NCCCc2ccc(C(=O)c3ccccc3)cc2)c1=O)NCc1cc2cnccc2[nH]1` [Compound 41, N-((1H-pyrrolo[3,2-c]pyridin-2-yl)methyl)-2-(5-((3-(4-benzo-ylphenyl)propyl)amino)-6-oxo-2-phenylpyrimidin-1(6H)-yl)-acetamide] stands greater than 7.00.
The same measure for `CS(=O)(=O)c1ccc(CCCNc2cnc(-c3ccccc3)n(CC(=O)NCc3cc4cnccc4[nH]3)c2=O)cc1` [Compound 42, N-((1H-pyrrolo[3,2-c]pyridin-2-yl)methyl)-2-(5-((3-(4-(methylsulfonyl)phenyl)propyl)amino)-6-oxo-2-phenylpyrimidin-1(6H)-yl)acetamide]: greater than 7.00.
